The record followed here is US12551463B2, “Dosing of a Bruton's tyrosine kinase inhibitor” (Loxo Oncology, Inc., priority 2019, dated 2026).

Experiment [1] concerns Waldenstrom's macroglobulinemia. Put plainly: Phase 1/2 clinical study, Waldenstrom's macroglobulinemia patients. The format is in vivo, human. An excerpt:
(§1) The study is an open-label, multi-center study of oral BTK-I to evaluate safety and efficacy as monotherapy and as part of combination therapy in patients with CLL/SLL and NHL who have failed or are intolerant to standard of care. This study includes monotherapy as well as combination treatment parts. The monotherapy part includes Phase 1 dose escalation and dose expansion as well as Phase 2. The combination therapy part is a Phase 1b (safety assessment and expansion) of BTK-I in combination with venetoclax, with or without anti-CD20 therapy. Phase 1 dose escalation will proceed prior to start of Phase 1b or Phase 2. Once a recommended Phase 2 dose (RP2D) is identified in Phase 1, enrollment can commence to the Phase 1b combination therapies and Phase 2 monotherapy cohorts.
(§2) The primary objectives of the Phase 1 Dose Escalation and Expansion part of the study is to determine the maximum tolerated dose (MTD)/RP2D of oral BTK-I in patients with previously treated CLL/SLL and B-cell NHL.
(§3) Patients are enrolled with histologically confirmed CLL/SLL or B-cell NHL who have failed or are intolerant to at least two prior standard of care regimens given in combination or sequentially or have received at least one prior BTK inhibitor-containing regimen when BTK inhibitor is approved in first line.
(§4) BTK-I is administered in oral tablet form. Dose escalation will follow a 3+3 design starting with a 25 mg QD dose (followed by 50 mg QD (dose level cohort 2), 100 mg QD (dose level cohort 3), 150 mg QD (dose level cohort 4), 200 mg QD (dose level cohort 5), 250 mg QD (dose level cohort 6), and 300 mg QD (dose level cohort 7)). Cycle length will be 28 days. The drug limiting toxicity (DLT) period will be 28 days, commencing with the first dose of BTK-I.
(§5) The primary objective of the Phase 2 is to assess the primary anti-tumor activity of BTK-I based on overall response rate (ORR) and as assessed by the Independent Review Committee.
(§6) At the RP2D up to ˜600 patients with CLL/SLL or NHL will be enrolled to one of the following cohorts: • Cohort 1: Non-blastoid MCL patients treated with a prior BTK-inhibitor. • Cohort 2: CLL/SLL patients treated with 2 or more prior regimens, including a BTK inhibitor-containing regimen. • Cohort 3: CLL/SLL patients with no prior therapy. • Cohort 4: CLL/SLL patients treated with prior therapy, BTK inhibitor naive. • Cohort 5: WM patients treated with a prior BTK inhibitor containing regimen. • Cohort 6: MZL patients treated with a prior BTK inhibitor containing regimen. • Cohort 7: (Not otherwise specified) defined as CLL/SLL or NHL not otherwise specified in Cohorts 1 through 6, inclusive of CLL/SLL or NHL, Richter's transformation, blastoid MCL, and patients with history of CNS involvement or primary CNS lymphoma.
(§7) Dosing during Phase 2 will be at the RP2D of 200 mg QD. The cycle length will be 28 days. BTK-I will be administered to the Phase 2 patients in oral tablet form at the RP2D. The dose (and schedule) chosen for Phase 2 may be changed by the SRC based on emerging data (e.g., PK, safety, and/or efficacy) as long as the new dose is not greater than the highest dose that has a DLT <33% and is determined to be safe by the SRC in Phase 1. If the RP2D is changed based on emerging data, patients enrolled to Phase 2 at a different dose may have the dose changed to the new dose.

In a further experiment the test system is TMD8 BTK C481S cells. Put plainly: In vivo mouse xenograft study, TMD8 BTK C481S. Also noted: species or system mice. Particulars: BTK-I BID alone; BTK C481S driven TMD8 (DLBCL) xenograft. Here is the method:
In all studies, test articles are administered alone and in combination, following different dosing regimens.
Human TMD8 BTK WT, TMD8 BTK C481S or REC-1 cells are injected subcutaneously in the right flank of mice. When tumors reach a mean volume between 150 mm^3 and 400 mm^3, mice are randomized based on their tumor volumes. Mice are next dosed for 14 to 23 days depending on the study design. The potencies of the compounds stand-alone or in combination on the inhibition of the tumor growth are assessed based on the tumor volume changes and weights after collection at the end of the study. Additionally, in the TMD8 studies, the plasma concentrations of test articles are measured at multiple time points after the last dose.

Another experiment relates to MCL. Put plainly: Phase 1/2 clinical study, mantle cell lymphoma patients. The format is in vivo, human.
From the text: as §1, §2, §3, §4, §5, §6, §7

[2] abbreviates: of 13 with prior covalent BTK inhibitor.

Each structure is given as a SMILES string.

For `COc1ccc(F)cc1C(=O)NCc1ccc(-c2nn([C@@H](C)C(F)(F)F)c(N)c2C(N)=O)cc1` [BTK-I, (S)-5-amino-3-(4-((5-fluoro-2-methoxybenzamido)methyl)phenyl)-1-(1,1,1-trifluoropropane-2-yl)-1H-pyrazole-4-carboxamide], the ORR is 69% in experiment [1] (13 patients with prior covalent BTK inhibitor); 68% in experiment [1] (19 efficacy-evaluable WM patients); 52% in the experiment on MCL (52 patients with prior covalent BTK inhibitor, 95% CI: 38-66); 52% in the experiment on MCL (56 efficacy-evaluable MCL patients, 95% CI: 38-65). Further, the WM responders ongoing entry in experiment [1] (median follow-up 4.6 months) is “Ten of 13”. Also, the “MR, patients” value in experiment [1] (setting [2]) came out at 4. Besides, the figures for the “PR, patients” value (in experiment [1] (setting [2]); in experiment [1] (of 19 efficacy-evaluable); with MCL (of 56 efficacy-evaluable)) were 5, 9 and 15, respectively. Moreover, the “minor response (MR), patients” value in experiment [1] (of 19 efficacy-evaluable) is listed as 4. Moreover, the “inhibition of xenograft tumor growth” value in the experiment with TMD8 BTK C481S cells is “potently inhibited the growth”. Also, the “median time to first response” value with MCL (MCL) is listed as 1.8 months. In addition, in the experiment on MCL (all MCL patients), the “patients remaining on BTK-I” value came to 57%. The “responding patients who discontinued treatment” value in the experiment on MCL (of 29 responders (4 PD, 1 in CR)) came out at 5. Besides, in the experiment on MCL (of 56 efficacy-evaluable), the “CR, patients” value is listed as 14. In addition, in the experiment with MCL (of 56 efficacy-evaluable), the “NE, patients” value came out at 5. In the experiment with MCL (of 56 efficacy-evaluable), the “PD, patients” value amounted to 12. Besides, the responses with MCL (patients with blastoid variant MCL) is given as 2 of 4; in the experiment with MCL (patients with prior CAR-T), 2 of 2; in the experiment on MCL (prior autologous or allogeneic transplant (9/14)), 64%.
